Assay results as given in patent US4798811A, “Combination preparation” (BASF Aktiengesellschaft, priority 1986, dated 1989).

What was measured:
thrombocyte aggregation [1] = assay: Ex vivo inhibition of thrombocyte aggregation after oral administration to five test persons; format: in vivo; details: four hours after administration
Description: (§1) The following methods were used:
(§2) Venous blood was taken from four test persons and rendered unclottable by adding citrate, and thrombocyte-rich plasma was then obtained from this blood by centrifuging under 300 g for 10 minutes at 4° C. The addition of adrenalin (final concentration 5×10^-8 mole/liter) and collagen (final concentration 2×10^-3 g/liter) to the thrombocyte-rich plasma caused aggregation, which was measured as the change in extinction using a Born aggregometer MK 3. The maximum change in extinction per second was used as a measure of aggregation. The percentage inhibition of aggregation was determined by comparing the values before and after administration of the substance.
2. Ex vivo investigations
The candidate compounds were filled into stomach-soluble gelatine capsules and administered orally to five test persons. Venous blood was taken before administration of the substances and four hours after administration. This blood was prepared as under 1 and made to aggregate. The percentage inhibition of aggregation was determined by comparing the values before and after administration of the substance.

thrombocyte aggregation [2] = assay: In vitro inhibition of thrombocyte aggregation induced by adrenalin and collagen in thrombocyte-rich plasma; format: cell-based, test persons
Description: as §1
1. In vitro investigations
as §2

Row | Compound | Aggregation inhibition (%) (thrombocyte aggregation [1]; oral Dosage 60 mg) | inhibition at 1 µg/mL (thrombocyte aggregation [2]; Conc. 1 mg/l, adrenalin 5×10^-8 mole/liter and collagen 2×10^-3 g/liter) | aggregation inhibition (in words) (thrombocyte aggregation [2]; dose of 1.0 mg/l) | Aggregation inhibition (%) (thrombocyte aggregation [1]; oral Dosage 240 mg) | inhibition at 2 µg/mL (thrombocyte aggregation [2]; Conc. 2 mg/l, adrenalin 5×10^-8 mole/liter and collagen 2×10^-3 g/liter) | inhibition at 10 µg/mL (thrombocyte aggregation [2]; Conc. 10 mg/l, adrenalin 5×10^-8 mole/liter and collagen 2×10^-3 g/liter)
1 | CC(=O)Oc1ccccc1C(=O)O [ASA, acetylsalicylic acid] | 0% | 0% | ineffective |  |  | 
2 | COc1ccc(CCN(C)CCCC(C#N)(c2ccc(OC)c(OC)c2)C(C)C)cc1OC (stereo not drawn) [Verapamil, 1,7-bis-(3,4-dimethoxyphenyl)-3-methylaza-7-cyano-8-methylnonane] |  |  |  | 33% | 8.7% | 31%
